Measured values: patent US20110129423A1, “ANTICANCER COMPOUNDS AND SCREENING METHOD” (priority 2009, published 2011)
Several values for one entry are separate records, joined by “and”; a condition that tells them apart may be missing. Equal values may be shown once.

Columns and labels:
[1] = Toxicity observation in the 28-day dog study; type: in vivo; details: dogs, 20, 60 or 200 mg/kg oral daily for 28 days
Method: (§1) Effects of the test compound 17α-ethynylandrostane-3α,17β-[…] on steroidogenesis in dogs in vivo. Samples were collected from male dogs (5/group) treated with 0, 20, 60 or 200 mg/kg of 17α-ethynylandrostane-3α,17β-diol before dosing on days 1, 14, and 28. The animals were dosed daily for 28 days. The samples were analyzed for testosterone (T), androstendione (A4), and dehydroepiandrosterone (DHEA). Day 1 and day 28 vehicle and 60 mg/kg samples were assayed for luteinizing hormone. The compound was administered by oral administration of a 20 mg/mL 17α-ethynylandrostane-3α,17β-diol solution made of 40% 2-hydroxypropyl-β-cyclodextrin in water.

[2] = system: systemic (serum) levels of testosterone, estradiol, estrone and DHEA; experiment: Systemic steroid hormone levels in rats dosed daily for 14 days; type: in vivo, rat; details: 100 mg/kg daily, by day 7
Method: Plasma samples were processed by liquid/liquid extraction using MTBE. The organic portions containing the analytes were evaporated and dried extracts were incubated at 60° C. with a dansyl chloride solution. The resulting steroid derivatives were analyzed on a Waters Xbridge™ Phenyl column by reversed-phase high-performance liquid chromatography (Agilent, Palo Alto, Calif. and Leap Technologies, Carrboro, N.C.) coupled with a tandem quadrupole mass spectrometer (Waters, Beverly, Mass.). Calibration curves for standards and QC samples for […] (Estradiol, E2) and Estrone (E1) were analyzed in parallel with the samples. Sample responses were acquired and concentrations were determined based on the calibration using Masslynx™ analysis software (Waters, Beverly, Mass.). Determination of QC statistics was performed by subtracting the endogenous concentration determined in native plasma from the total concentration found in the QC sample. No PK calculations were performed on this study. The quantifiable range of detection for E2 was 5.0 to 200.0 pg/mL. The quantifiable range of detection for E1 was 10.0 to 200.0 pg/mL. Values below the detection limit were identified as such and reported.
(§2) T, A4 and DHEA assay. Plasma samples were processed by liquid/liquid extraction using MTBE (methyl-t-butyl ether). The organic portions containing the free steroids were evaporated and the dried extracts were incubated at 60° C. with a hydroxylamine hydrochloride solution. The resulting steroid-oxime derivatives were extracted with MTBE. The organic portions containing the steroid-oxime derivatives were evaporated to dryness, reconstituted in 80/20 water/acetonitrile, and analyzed on a Waters Xbridge™ Phenyl column by reversed-phase high-performance liquid chromatography (Agilent, Palo Alto, Calif. and Leap Technologies, Carrboro, N.C.) coupled with a tandem quadrupole mass spectrometer (Waters, Beverly, Mass.). Calibration curves prepared in water and QC samples prepared in native plasma for T (4-androstene-3-one-17β-ol), A4 (4-androstene-3,17-dione), and DHEA were analyzed in parallel with the samples. Sample responses were acquired and concentrations were determined based on the calibration curve using Masslynx™ analysis software (Waters, Beverly, Mass.). Determination of QC statistics was performed by subtracting the endogenous concentration determined in native plasma from the total concentration found in the QC sample.
The quantifiable range of detection for T was 10.0 to 20000.0 pg/mL in rat (example 3) and dog (this example) samples. The quantifiable range of detection for A4 was 10.0 to 20000.0 pg/mL in rats and 20.0 to 20000.0 pg/mL in dogs. The quantifiable range of detection for DHEA was 50.0 to 200.0 pg/mL in both species. […]

ACTH, LH, and FSH = experiment: Peptide hormone assays (ELISA) in rat plasma; type: in vivo; details: rats, 100 mg/kg daily for 14 days
Method: Peptide Hormone Assays. ELISA kits for the quantification of ACTH, LH, and FSH in rat plasma were obtained from USCN Life, Wuhan, China. All other reagents were obtained from Sigma Chemical Co, St. Louis, Mo. ELISA results were measured on an ELx800 plate reader (Bio-Tek, Winooski, Vt.). Samples were assayed for ACTH, LH, and FSH concentration by means of an ELISA assay kit according to the manufacturer's instructions. For the rat samples, although 100 μL of undiluted plasma were required for each assay, […], 100 μL (LH), or 30 μL (FSH) were used in order to obtain results in the quantifiable range of the assay. Samples from Day 14 were assayed in duplicate; samples from Day 0 and Day 7 were assayed singly due to the small sample volume available. Concentrations were calculated from an eight-point standard curve. Thirty-five μL of dog plasma was used for the LH assay.
The compound 17α-ethynylandrostane-3α,17β-diol (100 mg/kg) was administered to rats (n=5) daily for 14 days. The compound was a 20 mg/mL solution made of […] 2-hydroxypropyl-β-cyclodextrin in water. Vehicle lacking the compound was administered to control animals (n=5). By day 7 in the dosing period, systemic (serum) levels of testosterone, estradiol, estrone and DHEA had fallen by over 99% to essentially undetectable levels in the treated animals. Changes in LH, FSH and ACTH were not observed.

steroidogenesis in dogs = experiment: Effects on steroidogenesis in dogs in vivo (plasma T, A4, DHEA by LC-MS/MS); parameters: species or system dog; details: for Testosterone Concentrations: male dogs
Method: as §1, §2
The quantifiable range of detection for T was 10.0 to 20000.0 pg/mL in rat (example 3) and dog (this example) samples. The quantifiable range of detection for A4 was 10.0 to 20000.0 pg/mL in rats and 20.0 to 20000.0 pg/mL in dogs. The quantifiable range of detection for DHEA was 50.0 to 200.0 pg/mL in both species. Values below the detection limit were identified as such.

[3] = dogs, end of 28 days of daily oral dosing, dose group not specified

C#C[C@]1(O)CC[C@H]2[C@@H]3CCC4C[C@H](O)CC[C@]4(C)[C@H]3CC[C@@]21C (stereo partly drawn) [17α-ethynylandrostane-3α,17β-diol]
toxicity in the animals [1]: Significant toxicity was not observed
fall of systemic (serum) level of DHEA [2]: over 99%
fall of systemic (serum) level of estradiol [2]: over 99%
fall of systemic (serum) level of estrone [2]: over 99%
fall of systemic (serum) level of testosterone [2]: over 99%
changes in ACTH (ACTH, LH, and FSH): not observed
changes in FSH (ACTH, LH, and FSH): not observed
changes in LH (ACTH, LH, and FSH): not observed
decrease of A4 (androstendione) level compared to vehicle control (steroidogenesis in dogs; [3]): about 99%
decrease of DHEA level (steroidogenesis in dogs; [3]): about 90%
decrease of T (testosterone) level compared to vehicle control (steroidogenesis in dogs; [3]): about 99%
Testosterone Concentrations (steroidogenesis in dogs; 20 mg/kg oral daily, day 1 sample before dosing (baseline), individual animals A111M-A115M, 20 mg/kg): 1747.2 pg/mL and 1677.0 pg/mL and 668.6 pg/mL and 771.4 pg/mL and 2450.6 pg/mL
Testosterone Concentrations (steroidogenesis in dogs; 20 mg/kg oral daily, day 14, individual animals A111M-A115M, 20 mg/kg): 67.8 pg/mL and 51.1 pg/mL and 344.9 pg/mL and 90.1 pg/mL and 94.4 pg/mL
Testosterone Concentrations (steroidogenesis in dogs; 20 mg/kg oral daily, day 28, individual animals A111M-A115M, BQL = below the limit of quantitation (lower limit 10.0 pg/mL), 20 mg/kg): 19.3 pg/mL and 60.8 pg/mL and 143.8 pg/mL and 173.0 pg/mL and BQL
Testosterone Concentrations (steroidogenesis in dogs; 60 mg/kg oral daily, day 1 sample before dosing (baseline), individual animals A121M-A125M, 60 mg/kg): 46.9 pg/mL and 711.2 pg/mL and 723.8 pg/mL and 1371.3 pg/mL and 1659.6 pg/mL
Testosterone Concentrations (steroidogenesis in dogs; 60 mg/kg oral daily, day 14, individual animals A121M-A125M, 60 mg/kg): 173.7 pg/mL and 38.5 pg/mL and 110.4 pg/mL and 144.1 pg/mL and 338.0 pg/mL
Testosterone Concentrations (steroidogenesis in dogs; 60 mg/kg oral daily, day 28, individual animals A121M-A125M, BQL = below the limit of quantitation (lower limit 10.0 pg/mL), 60 mg/kg): 18.9 pg/mL and BQL (4×)
Testosterone Concentrations (steroidogenesis in dogs; 200 mg/kg oral daily, day 1 sample before dosing (baseline), individual animals A131M-A135M, 200 mg/kg): 503.3 pg/mL and 350.3 pg/mL and 1816.6 pg/mL and 1891.0 pg/mL
Testosterone Concentrations (steroidogenesis in dogs; 200 mg/kg oral daily, day 14, individual animals A131M-A135M, BQL = below the limit of quantitation (lower limit 10.0 pg/mL), 200 mg/kg): BQL (2×) and 119.5 pg/mL and 236.6 pg/mL and 18.1 pg/mL
Testosterone Concentrations (steroidogenesis in dogs; 200 mg/kg oral daily, day 28, individual animals A131M-A135M, BQL = below the limit of quantitation (lower limit 10.0 pg/mL), 200 mg/kg): BQL (2×) and 11.2 pg/mL and 10.2 pg/mL
